Legend:
[1] = system: A375 cells; test: Cell viability, WST-1 reagent, A375 cells grown in two-dimension; format: cell-based; details: WST-1, 72 h post treatment
Experimental: Compound 1 (PRT7000467), Compound 2 (PRT7041128), and Compound 3 (PRT7081582) are not toxic to cells grown in two-dimension. A375 cells were cultured with RPMI and 10% FBS. The cells were treated with different concentrations of Compound 1 (PRT7000467) and Compound 2 (PRT7041128), then the viability of the cells was determined seventy-two hours post treatment using WST-1 reagent (Roche) (FIG. 1B)

[2] = system: A375 melanoma cells; test: Transwell cell migration assay, A375 melanoma cells; format: cell-based; details: Homo sapiens, A-375; A375 melanoma cells, Transwell 5 μm pore, 24 h, Example 3 (FIGS. 1A, 1E); read-out: IC50 in the migration assay
Experimental: A375 melanoma cells (CRL-1619, American Type Culture Collection (“ATCC”), Manassas Va., USA)) grown in RPMI medium supplement with 10% FBS were starved for 24 hours in FBS free medium. After starvation of 24 hr, 5×10^4 cells in FBS free medium were placed in the upper chamber of 24-well, Transwell apparatus (CORNING TRANS WELL® polycarbonate membrane inserts, 5 μm pore size) with solvent (DMSO/PEG400) or different concentrations of Compound 1 (PRT7000467), Compound 2 (PRT7041128), or Compound 3 (PRT7081582). Medium containing FBS and compounds was added to the bottom chamber. Twenty-four hours later the melanoma cells from the upper chamber were removed with a cotton swab. Cells that migrated to the lower side of the membrane were stained with Calcein-AM (Sigma) and images were taken with fluorescence microscope. The number of migrating cells was quantified by ImageJ software and the IC50 values were calculated using Prism software (Graphpad) (FIG. 1A,1E).
A375 (melanoma) (CRL-1619, ATCC, Manassas, Va., USA), A431 (melanoma) (CRL-2592, ATCC, Manassas, Va., USA), A2058 (melanoma) (CRL-11147, ATCC, Manassas, Va., USA), MDA-MB-231 (breast) (HTB-26, ATCC, Manassas, Va., USA), LS175T (colon) (ATCC, Manassas, Va., USA), HT29 (colon) (HTB-38, ATCC, Manassas, Va., USA), PC3 (prostate) (CRL-1435, ATCC, Manassas, Va., USA), Panc03.27 (pancreatic) (ATCC, Manassas, Va., USA), 4T1 (breast-mouse) (CRL-2539, ATCC, Manassas. Va., USA), D122 (lung-mouse) (the Weizmann Institute of Science), D122-luc (lung-mouse) (the Weizmann Institute of Science), and B16 F10.9 (melanoma-mouse) cells (Caliper Life Sciences, Hopkinton Mass.), were grown in RPMI medium supplemented with 10% FBS. HUVEC cells were grown in Endothelial Cell Growth Medium 2 and THP1 cells were grown in RPMI medium supplemented with 10% FBS, 2 mM L-Glutamine, 1.5 g/L sodium bicarbonate, 10 mM Hepes, 1 mM sodium pyruvate, 4.5 g/L glucose and 0.05 mM 2-mercaptoethanol. The cells were starved for 24 hours in medium without FBS. At the end of the starvation, 5×10^4 cells in medium without FBS were placed in the upper chamber of 24-well, Transwell apparatus (CORNING TRANSWELL® polycarbonate membrane inserts, 5 μm pore size for […] and THP1 cells and 8 μm pore size for all the other cells) with solvent (DMSO/PEG400) or different concentrations of compound 1 (PRT7000467). Medium with FBS and compounds was added to the bottom chamber. Twenty-four hours later the cells from the upper chamber were removed with a cotton swab. Cells that migrated to the lower side of the membrane were stained with Calcein-AM (Sigma) and images were taken with a fluorescence microscope. The number of migrating cells was quantified by ImageJ software and the IC50 values were calculated using Prism software (Graphpad).

For O=C(Nc1ccc(S(=O)(=O)Nc2ncccn2)cc1)/C(=C\c1cccs1)NC(=O)c1cccs1 [Compound 2], the “toxicity to cells grown in two-dimension” value [1] was “not toxic” and the IC50 [2] was 9.2 µM.
